Test results: patent publication US20240100013A1, “SOTAGLIFLOZIN FOR IMPROVING LEFT ATRIAL FUNCTION” (CHARITÉ-UNIVERSITÄTSMEDIZIN BERLIN, priority 2021, published 2024)

Tests used:
LA cardiomyocytes [1] = experiment: Sarcomere shortening of LA cardiomyocytes; format: cell-based, rat
Method: Ca^2+ measurements and sarcomere shortening. Radiometric Ca^2+ measurements (excitation: 340 nm and 385 nm, emission: 510±10 nm; [Ca^2+] expressed as the ratio R=F340/F380) were performed either with a CytoCypher MultiCell System (CytoCypher BV, Netherlands; FIGS. 1C-F, 2D-G, 4A-F) or an Axiovert 200 microscope (Zeiss, Oberkochen, Germany) fluorescence imaging assembly (FIGS. 2A-C, 2H-J, 3A-E, 6E-I). LA cardiomyocytes were loaded with Fura-2 for 30 min at room temperature, washed twice with Tyrode solution and transferred to the microscope. Experiments were conducted at 37° C. and CaT were recorded at steady state (following electric stimulation).
CaT and sarcomere shortening of LA and LV cardiomyocytes were recorded for 10 s at 3 Hz stimulation. See FIGS. 2D-G, 4A-F. Electric stimulation was turned off and spontaneous SR Ca^2+ release events (See Voigt N, Heijman J, Wang Q, Chiang D Y, Li N, Karck M, Wehrens X H T, Nattel S, Dobrev D: “Cellular and molecular mechanisms of atrial arrhythmogenesis in patients with paroxysmal atrial fibrillation,” Circulation 2014, 129(2):145-156) (SCaEs) immediately recorded for a duration of 10 s (FIG. 1C-F). In a sub-set of LA cells, CaT were recorded for 10 s at 1 Hz stimulation. Electric stimulation was turned off, the cells immediately exposed to 20 mM caffeine and the sub-sequent caffeine-induced CaT recorded for 10 s (FIG. 2A-C, 3A-E). Sodium-calcium exchanger (NCX) activity was calculated as previously described. See Hohendanner F, Walther S, Maxwell J T, Kettlewell S, Awad S, Smith G L, Lonchyna V A, Blatter L A: “Inositol-1,4,5-trisphosphate induced Ca^2+ release and excitation-contraction coupling in atrial myocytes from normal and failing hearts,” J Physiol 2015, 593(6):1459-1477.

HFpEF (ZSF-1 obese) rats = experiment: Echocardiography of LA size in the ZSF-1 obese rat model of HFpEF after chronic treatment; format: in vivo; details: 30 mg/kg/day oral feeding, seven weeks, vs vehicle
Description: Animal experiments were approved by local authorities. The ZSF-1 obese rat model is based on a leptin receptor mutation resulting in severe metabolic dysfunction. See Bilan V P, Salah E M, Bastacky S, Jones H B, Mayers R M, Zinker B, Poucher S M, Tofovic S P: “Diabetic nephropathy and long-term treatment effects of rosiglitazone and enalapril in obese ZSF1 rats,” J Endocrinol 2011, 210(3):293-308. The model has repeatedly been reported to show distinct features of HFpEF, such as an increased left ventricular (LV) end diastolic pressure, LV hypertrophy, diastolic dysfunction, lung congestion and LA remodeling, while maintaining a preserved ejection fraction (EF).
Echocardiography. Echocardiography was performed and analyzed as previously described (See Hohendanner F, Bode D, Primessnig U, Guthof T, Doerr R, Jeuthe S, Reimers S, Zhang K, Bach D, Wakula P et al: “Cellular mechanisms of metabolic syndrome-related atrial decompensation in a rat model of HFpEF” J Mol Cell Cardiol 2018, 115:10-19) by an experienced observer (N.H.) blinded to the treatment group immediately prior to sacrifice using a vevo lab ultrasound system to assess LA size and LV fractional shortening in vivo. 1-lead electrocardiograms were obtained during echocardiography and the presence or absence of atrial rhythm disorders i.e., atrial fibrillation was documented.

LA cardiomyocytes [2] = experiment: Mitochondrial structure and Ca2+ uptake in LA cardiomyocytes; format: cell-based, rat; details: HFpEF
Description: For cell membrane permeabilization and subsequent measurements of mitochondrial Ca^2+ uptake (See ‘Mitochondrial structure and Ca^2+ uptake’) wash and internal solutions were used. Wash solution contained (in mM): 100 potassium acetate, 15 KCl, 0.35 EGTA, 0.75 MgCl2, 10 HEPES; pH adjusted to 7.2 with KOH. Internal solution contained (in mM): 125 KCl, 10 NaCl, 20 HEPES, 5 pyruvate, 2 maleic acid, 2 glutamic acid, 0.5 KH2PO4, 0.5 MgCl2, 5 EGTA, 0.002 free Ca^2+(MaxChelator), 15 BDM, pH adjusted to 7.2 with KOH. For permeabilization, 0.005% saponin was added to the internal solution.
Mitochondrial structure and Ca^2+ uptake. Mitochondrial structure was visualized by local thresholding of two-dimensional images acquired with MitoTracker Red (FIGS. 5A-B, 6D) and MitoTracker Green (FIGS. 4C-F) at an LSM 800 laser scanning microscope (Zeiss, Oberkochen, Germany). The fraction of mitochondria in relation to cell surface was taken as a measure of mitochondrial density. The averaged perimeter to area ratio of mitochondrial structures per cell was calculated as an indicator of mitochondrial fission using a 2-step Otsu thresholding algorithm. See Hohendanner F, Ljubojevic S, MacQuaide N, Sacherer M, Sedej S, Biesmans L, Wakula P, Platzer D, Sokolow S, Herchuelz A et al: “Intracellular dyssynchrony of diastolic cytosolic [Ca(2)(+)] decay in ventricular cardiomyocytes in cardiac remodeling and human heart failure,” Circ Res 2013, 113(5):527-538.
Mitochondrial Ca^2+ uptake was determined as previously described in detail. See Maxwell J T, Tsai C H, Mohiuddin T A, Kwong J Q: “Analyses of Mitochondrial Calcium Influx in Isolated Mitochondria and Cultured Cells,” Journal of visualized experiments: JoVE 2018(134). LA cardiomyocytes were loaded with Rhod-2 AM and MitoTracker green, transferred to an LSM 800 laser scanning microscope and washed twice with sodium and calcium-free wash solution. The cells were then permeabilized with internal solution containing 0.005% saponin for a duration of 30-60 s and consecutively washed twice with nominal Ca^2+ free internal solution containing 5 mM EGTA. Two-dimensional images of Rhod-2 (excitation: 559 nm, emission: 575-675 nm) and MitoTracker green fluorescence (excitation: 488 nm, emission: 505-525 nm) were obtained. The perfusion was switched to internal solution containing 2 μM Ca^2+. After 1 min, a second set of Rhod-2/MitoTracker images was obtained. Following another 1-min interval, a third set of images was obtained to confirm that mitochondrial Ca^2+ uptake had indeed been completed in the second set. A binary mask of mitochondrial structures was derived from MitoTracker green images and positive pixels defined as the region-of-interest for sub-sequent determination of Rhod-2 signal intensity (F). Signal intensity during perfusion with 0 μM Ca^2+ was defined as F0 and changes of [Ca^2+] after exposure to 2 μM Ca^2+ expressed as ΔF=F−F0. The change of mitochondrial density (L.%) was quantified as a measure of mitochondrial swelling.

[3] = rats; 30 mg/kg/day; cited from earlier work

## CCOc1ccc(Cc2cc([C@@H]3O[C@H](SC)[C@@H](O)[C@H](O)[C@H]3O)ccc2Cl)cc1 [sotagliflozin, (2S,3R,4R,5S,6R)-2-(4-chloro-3-(4-ethoxybenzyl)phenyl)-6-(methylthio)tetrahydro-2H-pyran-3,4,5-triol]
LA cardiomyocytes [1]; HFpEF
  shortening of time-to-peak and relaxation time: this effect could not be observed
LA cardiomyocytes [1]; HFpEF, 3 Hz, 5 mM extracellular [Ca2+]
  diastolic sarcomere length: significant increase
LA cardiomyocytes [1]; HFpEF, relationship of CaT and sarcomere shortening
  Ca2+ sensitivity: reduced
LA cardiomyocytes [1]; WT
  sarcomere relaxation time: shortened
  sarcomere shortening time-to-peak: shortened
HFpEF (ZSF-1 obese) rats
  LA enlargement (LA volume in vivo): mitigates LA enlargement
LA cardiomyocytes [2]
  increased density of mitochondria in LA cardiomyocytes: prevented
LA cardiomyocytes [2]; Sota vs vehicle
  increase of mitochondrial Ca2+ uptake: two-fold increase
LA cardiomyocytes [2]; after 1 h glucose starvation
  mitochondrial fission: significantly reduced
LA cardiomyocytes [2]; after exposure to 2 μM Ca2+
  swelling of mitochondria: this effect did not occur
LA cardiomyocytes [2]; permeabilized cells, exposure from 0 μM to 2 μM Ca2+, vehicle 0.84±0.07
  mitochondrial Ca2+ uptake: 1.76±0.27 AF/F0
[3]
  urinary glucose secretion: near maximal
